Converted amounts (≈) assume the structure as drawn. Where two headings read alike, the source gives them in different places.
How the values were obtained:
[1] = Solubility in pH controlled solutions and intravenous formulations; format: physicochemical
Description: Solubility of prostratin and SA-101B was measured in pH controlled solutions and in various representative formulations, in particular, intravenous formulations, where solubility is often a limiting factor.

SIVMac251 = assay: PBMC antiviral assay, SIVMac251; format: cell-based, SIV; conditions: SIVMac251, human PBMCs
Description: (§1) Compounds SA-101A and SA-101B were tested for antiviral activity against HIV-1 in peripheral blood mononuclear cells (PBMC) acutely infected with the HIV-1 isolates. PBMCs were derived from normal HIV-1 negative donors, and cultured under conditions which promote cell survival and HIV replication. Fresh human blood was obtained commercially from Biological Specialty Corporation (Colmar, Pa.). The low passage clinical isolates HIV-1Ba-L, HIVIIIB, and SIVmac251 were from the NIAID AIDS Research and Reference Reagent Program. Immediately before use, pre-titered aliquot of the viruses were removed from storage in a freezer (−80° C.) and thawed rapidly to room temperature in a biological safety cabinet. Phytohemagglutinin (PHA-P) was obtained from Sigma (St. Louis, Mo.) and recombinant IL-2 was obtained from R&D Systems Inc. (Minneapolis, Minn.). Antiviral activity was tested from a high-test concentration of 100 μM or 100 μg/ml with nine ½-log serial dilutions of the compound to derive applicable IC50 (concentration inhibition virus replication by 50%), IC90 (concentration inhibition virus replication by 90%), TC50 (concentration decreasing cell viability by 50%) and TI (therapeutic index: TC50/IC50) values.
(§2) Preparation of PMBC. Fresh Human PBMCs, Seronegative for HIV and HBV, were isolated from screened donors (Interstate Blood Bank, Inc. Memphis, Tenn.). Cells were pelleted/washed 2-3 times by low speed centrifugation and resuspensded in PBS to remove contaminating platelets. The leukophoresed blood was then diluted 1:1 with Dulbecco's Phosphate Buffered Saline (DPBS) and layered over 14 mL of Lymphocyte Separation Medium (LSM; Cellgro® by Mediatech, Inc.; density 1.078+/−0.002 g/ml; Cat. # 85-072-CL) in a 50 mL centrifuge tube and then centrifuged for 30 minutes at 600×g. […]
(§3) PMBC assay. […] Pooling (mixing) of mononuclear cells from more than one donor is used to minimize the variability observed between individual donors, which results from quantitative and qualitative differences in HIV infection and overall response to the PHA and IL-2 of primary lymphocyte populations. […]

HIV-1Ba-L = assay: PBMC antiviral assay, HIV-1Ba-L; format: cell-based; conditions: human PBMCs
Description: as §1
Preparation of PMBC. Fresh Human PBMCs, Seronegative for HIV and HBV, were isolated from screened donors (Interstate Blood Bank, Inc. Memphis, Tenn.). Cells were pelleted/washed 2-3 times by low speed centrifugation and resuspensded in PBS to remove contaminating platelets. The leukophoresed blood was then diluted 1:1 with Dulbecco's Phosphate Buffered Saline (DPBS) and layered over 14 mL of Lymphocyte Separation Medium (LSM; Cellgro® by Mediatech, Inc.; density 1.078+/−0.002 g/ml; Cat. # 85-072-CL) in a 50 mL centrifuge tube and then centrifuged for 30 minutes at 600×g. Banded PBMCs were gently aspirated from the resulting interface and subsequently washed 2× with PBS by low speed centrifugation. After the final wash, cells were enumerated by trypan blue exclusion and re-suspended at 1×10^7 cells/mL in RPMI 1640 supplemented with 15% Fetal Bovine Serum (FBS), and 2 mM L-glutamine, 4 μg/mL Phytohemagglutinin (PHA-P, Sigma). The cells were allowed to incubate for 48-72 hours at 37° C. After incubation, PBMCs were centrifuged and re-suspended in RPMI 1640 with 15% FBS, 2 mM L-glutamine, 100 U/mL penicillin, 100 μg/mL streptomycin, 10 μg/mL gentamycin, and 20 U/mL recombinant human IL-2 (R&D Systems, Inc). […]
as §3

HIV-1IIIB = assay: PBMC antiviral assay, HIV-1IIIB; format: cell-based; conditions: human PBMCs
Description: as §1, §2, §3

[2] = tested on: human monocytes/macrophages; assay: MTS staining for macrophage viability (cytotoxicity); format: cell-based
Description: Anti-HIV efficacy evaluation in human monocyte/macrophages. Following 6 to 14 days in culture, the monocyte/macrophages cultures were washed 3 times to remove any non-adherent cells, and serially diluted test compounds were added followed by the addition of a pre-titered amount of HIV. Cultures were washed a final time by media removal 24 h post infection, fresh compound added and the cultures continued for an additional six days. Assays were performed using a standardized microtiter plate format developed by the Infectious Disease Research Department of Southern Research Institute. […] At assay termination, virus replication was measured by collecting cell-free supernatant samples, which were analyzed for HIV p24 antigen content using a commercially available p24 ELISA assay (Coulter). Following removal of supernatant samples, compound cytotoxicity was measured by addition of MTS to the plates for determination of cell viability. […]
MTS staining for macrophage viability to measure cytotoxicity. At assay termination, the assay plates were stained with the soluble tetrazolium-based dye MTS (CellTiter Reagent, Promega) to determine cell viability and quantify compound cytotoxicity. MTS is metabolized by the mitochondrial enzymes of metabolically active cells to yield a soluble formazan product, allowing the rapid quantitative analysis of cell viability and compound cytotoxicity. […]

[3] = Human immunodeficiency virus 1, PBMC, read-out: IC90

For `CC(=O)OC12CC(C)C3(O)C(C=C(COC(=O)CCC(=O)O)CC4(O)C(=O)C(C)=CC43)C1C2(C)C` (stereo not drawn) [SA-101B, Prostratin Succinate], the “Solubility 5% Dextrose” value ([1]; 5% Dextrose) was >10000 µg/mL, the “Solubility Saline (0.9% NaCl)” value ([1]; Saline (0.9% NaCl)) was >10000 µg/mL and the “Solubility compared with prostratin” value ([1]; all media) was “better solubility than prostratin”. The “Solubility pH 1” value ([1]; pH 1) was 1.21 mg/mL, the “Solubility pH 2” value ([1]; pH 2) was 4.46 mg/mL and the “Solubility pH 5” value ([1]; pH 5) was 7.72 mg/mL. For the same molecule, the “Solubility pH 7.5” value ([1]; pH 7.5) was 11.20 mg/mL, the “Solubility pH 9” value ([1]; pH 9) was 12.08 mg/mL and the IC90 (SIVMac251; 40% Human AB serum) was >1.00 µg/mL. For the same molecule, the IC50 (HIV-1Ba-L; 40% Human AB serum) was 0.0007 µg/mL, the IC90 (HIV-1Ba-L; 40% Human AB serum) was >1.00 µg/mL and the IC90 (HIV-1IIIB; 40% Human AB serum) was >1.00 µg/mL. It also gave a TC50 ([2]; 40% Human AB serum) of 21.0 µg/mL.

For `CC(=O)O[C@@]12C[C@@H](C)[C@@]3(O)[C@@H](C=C(CO)C[C@]4(O)C(=O)C(C)=C[C@@H]34)[C@@H]1C2(C)C` [SA-101A, 12-deoxyphorbol 13-acetate], the solubility ([1]; 5% dextrose (intravenous formulation), saline or isotonic, read-out: Solubility 5% Dextrose) was 330 µg/mL (≈ 845 µM), the solubility ([1]; pH controlled solution, pH 1, simulated gastric fluid, read-out: Solubility pH 1) was 370 µg/mL (≈ 948 µM) and the solubility ([1]; pH controlled solution, pH 2, simulated gastric fluid, read-out: Solubility pH 2) was 370 µg/mL (≈ 948 µM). For the same molecule, the solubility ([1]; pH controlled solution, pH 5, aqueous buffer, read-out: Solubility pH 5) was 450 µg/mL (≈ 1150 µM), the solubility ([1]; pH controlled solution, pH 7.5, aqueous buffer, read-out: Solubility pH 7.5) was 420 µg/mL (≈ 1080 µM) and the solubility ([1]; pH controlled solution, pH 9, aqueous buffer, read-out: Solubility pH 9) was 390 µg/mL (≈ 999 µM). It also gave a solubility ([1]; saline (0.9% NaCl) (intravenous formulation), saline or isotonic, read-out: Solubility Saline (0.9% NaCl)) of 340 µg/mL (≈ 871 µM), an IC50 (SIVMac251; Simian immunodeficiency virus, PBMC) of 0.39 µg/mL (≈ 0.999 µM) and an IC90 (SIVMac251; Simian immunodeficiency virus, PBMC, read-out: IC90) of 0.9 µg/mL (≈ 2.3 µM). It also gave an IC50 (HIV-1Ba-L; Human immunodeficiency virus 1, PBMC, read-out: IC50) of 0.05 µg/mL (≈ 0.128 µM), an IC90 (HIV-1Ba-L; [3]) of 0.39 µg/mL (≈ 0.999 µM) and an IC50 (HIV-1IIIB; Human immunodeficiency virus 1, PBMC) of 0.09 µg/mL (≈ 0.23 µM). It also gave an IC90 (HIV-1IIIB; [3]) of 0.5 µg/mL (≈ 1.28 µM) and a TC50 [2] of 17.3 µg/mL (≈ 44.3 µM).

— patent publication US8022103B2, “Ester prodrugs of prostratin and related phorbol compounds” (Salvia Sciences, Inc., priority 2005, dated 2011)
